From PubChem BioAssay (NCI)
Values joined by “and” are separate entries in the source; they are usually repeats but may differ in a detail not shown here. Identical values can stand only once.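 Following 48 hours of exposure in 96-well plates, responses at five concentrations were used to interpolate endpoints linearly. Here, GI50 denotes the concentration required for 50% inhibition of growth. TGI: total growth inhibition.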

Key:
Assay in all cases: growth of human tumour cells (NCI), 48 h
786-0 renal = system: 786-0 renal
A498 renal = system: A498 renal
A549 NSCLC = system: A549 NSCLC
ACHN renal = system: ACHN renal
BT-549 breast = system: BT-549 breast
CAKI-1 renal = system: CAKI-1 renal
CCRF-CEM leukemia = system: CCRF-CEM leukemia
COLO 205 colon = system: COLO 205 colon
DU-145 prostate = system: DU-145 prostate
EKVX NSCLC = system: EKVX NSCLC
HCC-2998 colon = system: HCC-2998 colon
HCT-116 colon = system: HCT-116 colon
HCT-15 colon = system: HCT-15 colon
HL-60(TB) leukemia = system: HL-60(TB) leukemia
HOP-62 NSCLC = system: HOP-62 NSCLC
HOP-92 NSCLC = system: HOP-92 NSCLC
HS 578T breast = system: HS 578T breast
HT29 colon = system: HT29 colon
IGROV1 ovarian = system: IGROV1 ovarian
K-562 leukemia = system: K-562 leukemia
KM12 colon = system: KM12 colon
LOX IMVI melanoma = system: LOX IMVI melanoma
M14 melanoma = system: M14 melanoma
MALME-3M melanoma = system: MALME-3M melanoma
MCF7 breast = system: MCF7 breast
MDA-MB-231 breast = system: MDA-MB-231 breast
MDA-MB-435 = system: MDA-MB-435
MDA-N = system: MDA-N
MOLT-4 leukemia = system: MOLT-4 leukemia
NCI-H226 lung = system: NCI-H226 lung
NCI-H23 lung = system: NCI-H23 lung
NCI-H460 lung = system: NCI-H460 lung
NCI-H522 lung = system: NCI-H522 lung
NCI/ADR-RES ovarian = system: NCI/ADR-RES ovarian
OVCAR-3 ovarian = system: OVCAR-3 ovarian
OVCAR-4 ovarian = system: OVCAR-4 ovarian
OVCAR-5 ovarian = system: OVCAR-5 ovarian
OVCAR-8 ovarian = system: OVCAR-8 ovarian
PC-3 prostate = system: PC-3 prostate
RPMI-8226 leukemia = system: RPMI-8226 leukemia
RXF 393 renal = system: RXF 393 renal
SK-MEL-2 melanoma = system: SK-MEL-2 melanoma
SK-MEL-28 melanoma = system: SK-MEL-28 melanoma
SK-MEL-5 melanoma = system: SK-MEL-5 melanoma
SK-OV-3 ovarian = system: SK-OV-3 ovarian
SN12C renal = system: SN12C renal
SR leukemia = system: SR leukemia
SW-620 colon = system: SW-620 colon
T-47D breast = system: T-47D breast
TK-10 renal = system: TK-10 renal
UACC-257 melanoma = system: UACC-257 melanoma
UACC-62 melanoma = system: UACC-62 melanoma
UO-31 renal = system: UO-31 renal
SF-268 CNS = system: SF-268 CNS
SF-295 CNS = system: SF-295 CNS
SNB-19 CNS = system: SNB-19 CNS
SNB-75 CNS = system: SNB-75 CNS
U251 CNS = system: U251 CNS

## CN(C)C1C(=O)C(C(N)=O)=C(O)C2(O)C(=O)C3=C(O)c4c(O)cccc4C(C)(O)C3CC12 (stereo not given)
786-0 renal
  GI50: 26.1 µM and > 100 µM
  TGI: 63.8 µM and > 100 µM
A498 renal
  TGI: 95.5 µM and > 100 µM
A549 NSCLC
  TGI: > 100 µM
ACHN renal
  GI50: 39.9 µM and 82.7 µM
  TGI: > 100 µM
BT-549 breast
  TGI: > 100 µM
CAKI-1 renal
  TGI: > 100 µM
CCRF-CEM leukemia
  GI50: 22.8 µM and 67.5 µM
  TGI: 57.1 µM and > 100 µM
COLO 205 colon
  GI50: 25.7 µM and > 100 µM
  TGI: 72.2 µM and > 100 µM
DU-145 prostate
  TGI: > 100 µM
EKVX NSCLC
  TGI: > 100 µM
HCC-2998 colon
  GI50: > 100 µM and 42.7 µM
  TGI: > 100 µM
HCT-116 colon
  GI50: 23.7 µM and > 100 µM
  TGI: 39.2 µM and > 100 µM
HCT-15 colon
  TGI: > 100 µM
HL-60(TB) leukemia
  GI50: 24.5 µM and 82.9 µM
  TGI: 53.2 µM and > 100 µM
HOP-62 NSCLC
  GI50: 37.5 µM and > 100 µM
  TGI: > 100 µM
HOP-92 NSCLC
  TGI: > 100 µM
HS 578T breast
  TGI: > 100 µM
HT29 colon
  GI50: 27.2 µM and > 100 µM
  TGI: 67.9 µM and > 100 µM
IGROV1 ovarian
  TGI: > 100 µM
K-562 leukemia
  GI50: 23.2 µM and > 100 µM
  TGI: 48.5 µM and > 100 µM
KM12 colon
  TGI: > 100 µM
LOX IMVI melanoma
  TGI: 76.5 µM and > 100 µM
M14 melanoma
  GI50: 46.1 µM and > 100 µM
  TGI: > 100 µM
MALME-3M melanoma
  TGI: > 100 µM
MCF7 breast
  TGI: > 100 µM
MDA-MB-231 breast
  GI50: 26.2 µM and > 100 µM
  TGI: > 100 µM
MDA-MB-435
  GI50: 21 µM and > 100 µM
  TGI: 36.8 µM and > 100 µM
MDA-N
  GI50: 17.8 µM and > 100 µM
  TGI: 38.9 µM and > 100 µM
MOLT-4 leukemia
  GI50: 23.5 µM and > 100 µM
  TGI: 46.5 µM and > 100 µM
NCI-H226 lung
  TGI: > 100 µM
NCI-H23 lung
  GI50: 31.4 µM and > 100 µM
  TGI: 58.5 µM and > 100 µM
NCI-H460 lung
  TGI: > 100 µM
NCI-H522 lung
  TGI: > 100 µM
NCI/ADR-RES ovarian
  TGI: > 100 µM
OVCAR-3 ovarian
  GI50: 44.5 µM and > 100 µM
  TGI: > 100 µM
OVCAR-4 ovarian
  GI50: 31 µM and > 100 µM
  TGI: 75 µM and > 100 µM
OVCAR-5 ovarian
  TGI: > 100 µM
OVCAR-8 ovarian
  GI50: 15.4 µM and > 100 µM
  TGI: 34.9 µM and > 100 µM
PC-3 prostate
  TGI: > 100 µM
RPMI-8226 leukemia
  TGI: > 100 µM
RXF 393 renal
  TGI: 87.5 µM and > 100 µM
SK-MEL-2 melanoma
  GI50: 73 µM and 28 µM
  TGI: > 100 µM and 91.8 µM
SK-MEL-28 melanoma
  TGI: > 100 µM
SK-MEL-5 melanoma
  GI50: 22.4 µM and 56.5 µM
  TGI: 39.9 µM and > 100 µM
SK-OV-3 ovarian
  TGI: > 100 µM
SN12C renal
  GI50: 18.4 µM and > 100 µM
  TGI: 32.5 µM and > 100 µM
SR leukemia
  GI50: 26.4 µM and > 100 µM
  TGI: 55.1 µM and > 100 µM
SW-620 colon
  GI50: 23.3 µM and > 100 µM
  TGI: 46.1 µM and > 100 µM
T-47D breast
  TGI: > 100 µM
TK-10 renal
  TGI: > 100 µM
UACC-257 melanoma
  TGI: > 100 µM
UACC-62 melanoma
  GI50: 31.7 µM and 90.9 µM
  TGI: > 100 µM
UO-31 renal
  GI50: 41.9 µM and > 100 µM
  TGI: > 100 µM

## COc1ncc(C#CC(=O)c2ccccc2)c(OC)n1
786-0 renal
  TGI: 4.2 µM
A498 renal
  TGI: 32.4 µM
A549 NSCLC
  TGI: 33.1 µM
ACHN renal
  TGI: 3.7 µM
BT-549 breast
  TGI: 5.33 µM
CAKI-1 renal
  TGI: 7.3 µM
CCRF-CEM leukemia
  TGI: 2.07 µM
COLO 205 colon
  TGI: 5.08 µM
DU-145 prostate
  TGI: 19.7 µM
EKVX NSCLC
  TGI: 9.16 µM
HCC-2998 colon
  TGI: 13.3 µM
HCT-116 colon
  TGI: 10.1 µM
HCT-15 colon
  TGI: 3.18 µM
HL-60(TB) leukemia
  TGI: 4.68 µM
HOP-62 NSCLC
  TGI: 42 µM
HOP-92 NSCLC
  TGI: 4.3 µM
HS 578T breast
  TGI: 87 µM
HT29 colon
  TGI: 5.07 µM
IGROV1 ovarian
  TGI: 7.49 µM
KM12 colon
  TGI: 22.9 µM
LOX IMVI melanoma
  TGI: 3 µM
M14 melanoma
  TGI: 10.5 µM
MALME-3M melanoma
  TGI: 3.62 µM
MCF7 breast
  TGI: 1.96 µM
MDA-MB-231 breast
  TGI: 5.49 µM
MDA-MB-435
  TGI: 11.5 µM
MDA-N
  TGI: 3.73 µM
MOLT-4 leukemia
  TGI: 2.38 µM
NCI-H226 lung
  TGI: 5.46 µM
NCI-H23 lung
  TGI: 10.9 µM
NCI-H460 lung
  TGI: 38 µM
NCI-H522 lung
  TGI: 2.81 µM
NCI/ADR-RES ovarian
  TGI: 7.73 µM
OVCAR-3 ovarian
  TGI: 10.3 µM
OVCAR-4 ovarian
  TGI: 12.9 µM
OVCAR-5 ovarian
  TGI: 12.8 µM
OVCAR-8 ovarian
  TGI: 8.72 µM
PC-3 prostate
  TGI: 4.43 µM
RPMI-8226 leukemia
  TGI: > 21.9 µM
RXF 393 renal
  TGI: 3.79 µM
SF-268 CNS
  TGI: 26.4 µM
SF-295 CNS
  TGI: 36 µM
SK-MEL-2 melanoma
  TGI: 13.4 µM
SK-MEL-28 melanoma
  TGI: 11.4 µM
SK-MEL-5 melanoma
  TGI: 6.68 µM
SK-OV-3 ovarian
  TGI: 42.1 µM
SN12C renal
  TGI: 2.78 µM
SNB-19 CNS
  TGI: 31.6 µM
SNB-75 CNS
  TGI: 14 µM
SR leukemia
  TGI: 4.68 µM
SW-620 colon
  TGI: 4.84 µM
T-47D breast
  TGI: 15.8 µM
U251 CNS
  TGI: 9.59 µM
UACC-257 melanoma
  TGI: 14.7 µM
UACC-62 melanoma
  TGI: 8.78 µM
UO-31 renal
  TGI: 5.44 µM
